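In this assay, cells in 96-well plates receive the compound at five concentrations for 48 hours. Endpoints are linearly interpolated between the surrounding concentrations. The concentration for 50% growth inhibition is given as GI50.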 Activity calls are given as the source filed them. Rule as the data show it: active = GI50 up to about 1.1 µM and inactive = higher.
Columns and labels:
Experiment in all cases: NCI-60 cell line screen, 48 h
[1] = system: A549
[2] = system: A498
[3] = system: SK-MEL-28
[4] = system: MDA-MB-435
[5] = system: ACHN
[6] = system: CCRF-CEM
[7] = system: DU-145
[8] = system: RXF 393
[9] = system: SK-MEL-5
[10] = system: 786-0
[11] = system: SNB-75
[12] = system: SK-OV-3
[13] = system: NCI/ADR-RES
[14] = system: SN12C
[15] = system: OVCAR-8
[16] = system: HCT-116
[17] = system: UACC-257
[18] = system: K562
[19] = system: Malme-3M
[20] = system: MDA-N

Structure (SMILES) | GI50 [1] | GI50 [2] | GI50 [3] | GI50 [4] | GI50 [5] | GI50 [6] | GI50 [7] | GI50 [8] | GI50 [9] | GI50 [10] | GI50 [11] | GI50 [12] | GI50 [13] | GI50 [14] | GI50 [15] | GI50 [16] | GI50 [17] | GI50 [18] | GI50 [19] | GI50 [20]
CC1OC(=O)c2ccccc2NC1=O (stereo not drawn) | > 100 µM (inactive) | > 100 µM (inactive) | > 100 µM (inactive) | > 100 µM (inactive) | > 100 µM (inactive) | > 100 µM (inactive) | > 100 µM (inactive) | > 100 µM (inactive) | > 100 µM (inactive) | > 100 µM (inactive) | > 100 µM (inactive) | > 100 µM (inactive) | > 100 µM (inactive) | > 100 µM (inactive) | > 100 µM (inactive) | > 100 µM (inactive) | > 100 µM (inactive) | > 100 µM (inactive) | > 100 µM (inactive) | 
Cc1ccc(C)n1-c1ccccc1C1C=Cn2c(=O)oc3c(OC(C)C)c(OC(C)C)c(O)c1c32 (stereo not drawn) | 16.5 µM (inactive) | 43.8 µM (inactive) | 28.6 µM (inactive) | 6.1 µM (inactive) | 33.3 µM (inactive) | 18 µM (inactive) | 90.4 µM (inactive) | 7.78 µM (inactive) | 14.4 µM (inactive) | 37.3 µM (inactive) | 28.1 µM (inactive) | > 100 µM (inactive) | 27.4 µM (inactive) | 76.6 µM (inactive) | 49.1 µM (inactive) | 8.26 µM (inactive) | 17.1 µM (inactive) | 4.67 µM (inactive) | 33.7 µM (inactive) | 
CCC12CCCN(Cc3ccccc3)C1c1c([nH]c3ccccc13)C(C(=O)OC)C2 (stereo not drawn) | > 10 µM (inactive) |  | > 10 µM (inactive) | > 10 µM (inactive) | > 10 µM (inactive) | > 10 µM (inactive) | > 10 µM (inactive) |  | > 10 µM (inactive) | > 10 µM (inactive) | > 10 µM (inactive) | > 10 µM (inactive) | > 10 µM (inactive) | > 10 µM (inactive) | > 10 µM (inactive) | 4.08 µM (inactive) | > 10 µM (inactive) | > 10 µM (inactive) | > 10 µM (inactive) | > 10 µM (inactive)
N#Cc1c(Nc2nc3ccccc3s2)c2ccccc2n2c1nc1ccccc12 | > 100 µM (inactive) | 89.5 µM (inactive) | > 100 µM (inactive) | > 100 µM (inactive) | 79.8 µM (inactive) |  | > 100 µM (inactive) |  | > 100 µM (inactive) | 29 µM (inactive) | 24.5 µM (inactive) |  | 72.4 µM (inactive) | > 100 µM (inactive) | > 100 µM (inactive) | > 100 µM (inactive) | > 100 µM (inactive) |  | > 100 µM (inactive) | > 100 µM (inactive)
CC(C)[Si](Oc1ccc(CC2N(C(=O)c3ccc([N+](=O)[O-])cc3)C(CCc3ccccc3)CC2(C)C=O)cc1)(C(C)C)C(C)C (stereo not drawn) |  | > 100 µM (inactive) | > 100 µM (inactive) |  | > 100 µM (inactive) | > 100 µM (inactive) | 61.1 µM (inactive) | 5.85 µM (inactive) |  | 17.2 µM (inactive) |  | 27.7 µM (inactive) |  |  | 13.6 µM (inactive) |  | > 100 µM (inactive) |  | > 100 µM (inactive) | 
COc1ccc(N2C(=O)C3c4[nH]c5ccccc5c4C4CCC(C(C)C)CC4C3C2=O)cc1 (stereo not drawn) | > 100 µM (inactive) | > 100 µM (inactive) | > 100 µM (inactive) | > 100 µM (inactive) | > 100 µM (inactive) | 0.343 µM (active) | > 100 µM (inactive) |  | > 100 µM (inactive) | > 100 µM (inactive) | 35.2 µM (inactive) | 37.6 µM (inactive) | > 100 µM (inactive) | > 100 µM (inactive) | > 100 µM (inactive) | > 100 µM (inactive) | > 100 µM (inactive) | > 100 µM (inactive) | 42.9 µM (inactive) | > 100 µM (inactive)
COc1ccc(/N=C2\S/C(=N\C(=N\c3ccccc3)SCc3ccccc3)N(c3ccccc3)\C2=N/c2ccc(OC)cc2)cc1 | > 100 µM (inactive) |  | 62.4 µM (inactive) |  |  | > 100 µM (inactive) |  | > 100 µM (inactive) | > 100 µM (inactive) | > 100 µM (inactive) | > 100 µM (inactive) |  |  | > 100 µM (inactive) | > 100 µM (inactive) | > 100 µM (inactive) | > 100 µM (inactive) | > 100 µM (inactive) | > 100 µM (inactive) | > 100 µM (inactive)
C=C1[C@@H]([C@@]2(C)C=CC(=O)C(C)(C)[C@@H]2CC(=O)OC)CC[C@@]2(C)[C@H](c3ccoc3)OC(=O)[C@H]3O[C@]132 [ANDIROBIN] | > 100 µM (inactive) | 79.4 µM (inactive) | > 100 µM (inactive) | > 100 µM (inactive) | > 100 µM (inactive) | > 100 µM (inactive) | > 100 µM (inactive) |  | 68.2 µM (inactive) | > 100 µM (inactive) | 46.2 µM (inactive) | > 100 µM (inactive) | > 100 µM (inactive) | > 100 µM (inactive) | > 100 µM (inactive) | > 100 µM (inactive) | > 100 µM (inactive) |  | > 100 µM (inactive) | > 100 µM (inactive)
Oc1[nH]c(Nc2cccc(Cl)c2)nc2ncnc1-2 | > 100 µM (inactive) | > 100 µM (inactive) |  | 83.8 µM (inactive) | > 100 µM (inactive) | 71.4 µM (inactive) | 74.6 µM (inactive) | > 100 µM (inactive) | > 100 µM (inactive) | > 100 µM (inactive) | 30.5 µM (inactive) | > 100 µM (inactive) | > 100 µM (inactive) | > 100 µM (inactive) | > 100 µM (inactive) | 62.4 µM (inactive) | > 100 µM (inactive) | 86.5 µM (inactive) | > 100 µM (inactive) | 
COC(=O)Cc1cccc2c(=O)c(S(=O)(=O)NC(=O)Nc3ccc(Cl)cc3)c(-c3ccccc3)oc12 | 69.2 µM (inactive) |  | 34.6 µM (inactive) | 11.3 µM (inactive) | 12.2 µM (inactive) | 15.9 µM (inactive) | > 100 µM (inactive) |  | 30.2 µM (inactive) | > 100 µM (inactive) | > 100 µM (inactive) | > 100 µM (inactive) | > 100 µM (inactive) | 36.6 µM (inactive) | 69.3 µM (inactive) | 33.3 µM (inactive) | 87.5 µM (inactive) | 4.3 µM (inactive) |  | > 100 µM (inactive)
COC1=CC2(C=CC1=O)c1cc(OC)c(OC)cc1CCN2C(=O)c1ccccc1 (stereo not drawn) | > 100 µM (inactive) | > 100 µM (inactive) | > 100 µM (inactive) |  | > 100 µM (inactive) | > 100 µM (inactive) |  | > 100 µM (inactive) | > 100 µM (inactive) | > 100 µM (inactive) | > 100 µM (inactive) | > 100 µM (inactive) |  | > 100 µM (inactive) | > 100 µM (inactive) | > 100 µM (inactive) | > 100 µM (inactive) | > 100 µM (inactive) | > 100 µM (inactive) | 
O=S(=O)(O)c1ccc(NN(c2c(O)ccc3ccccc23)S(=O)(=O)O)cc1 | > 100 µM (inactive) | > 100 µM (inactive) | > 100 µM (inactive) | > 100 µM (inactive) | > 100 µM (inactive) | > 100 µM (inactive) | > 100 µM (inactive) |  | > 100 µM (inactive) | > 100 µM (inactive) |  | > 100 µM (inactive) | > 100 µM (inactive) | > 100 µM (inactive) | > 100 µM (inactive) | > 100 µM (inactive) | > 100 µM (inactive) | > 100 µM (inactive) | > 100 µM (inactive) | > 100 µM (inactive)
COc1cc(OC)cc(Oc2nc3c(N)cc(C(F)(F)F)cc3nc2-c2ccccc2)c1 |  | > 100 µM (inactive) | 61.8 µM (inactive) | 11.4 µM (inactive) | 28.5 µM (inactive) | 12.8 µM (inactive) |  | 21.1 µM (inactive) | 37.3 µM (inactive) | 55.1 µM (inactive) | 47.9 µM (inactive) | 44.4 µM (inactive) | 52.6 µM (inactive) |  | 46.3 µM (inactive) | 22.6 µM (inactive) | 79.3 µM (inactive) | 2.71 µM (inactive) |  | 
O=C1/C(=C\c2ccc([N+](=O)[O-])cc2)Sc2scc(-c3ccc(O)c(O)c3)[n+]21 | 17.6 µM (inactive) | > 10 µM (inactive) | 12.3 µM (inactive) | 9.75 µM (inactive) | 6.82 µM (inactive) | 2.68 µM (inactive) | 13.5 µM (inactive) |  | 3.87 µM (inactive) | 3.73 µM (inactive) | 9.25 µM (inactive) | 12.7 µM (inactive) | 4.84 µM (inactive) | 4.5 µM (inactive) | 4.45 µM (inactive) | 4.2 µM (inactive) | 6.87 µM (inactive) | 3.4 µM (inactive) |  | 5.41 µM (inactive)
Cc1ccc(C2c3c(n(C)c(=O)n(C)c3=O)OC(N(C)C)(N(C)C)C2(F)F)cc1 (stereo not drawn) | > 100 µM (inactive) | > 100 µM (inactive) | > 100 µM (inactive) | > 100 µM (inactive) | > 100 µM (inactive) | > 100 µM (inactive) | > 100 µM (inactive) | > 100 µM (inactive) | > 100 µM (inactive) | > 100 µM (inactive) | > 100 µM (inactive) | > 100 µM (inactive) | > 100 µM (inactive) |  |  | > 100 µM (inactive) | > 100 µM (inactive) | > 100 µM (inactive) |  | 
Cc1ccccc1/N=C/c1ccc(N(CCC#N)S(=O)(=O)c2ccccc2)cc1 | > 100 µM (inactive) | > 100 µM (inactive) | > 100 µM (inactive) |  | > 100 µM (inactive) | > 100 µM (inactive) |  | > 100 µM (inactive) | > 100 µM (inactive) | > 100 µM (inactive) | > 100 µM (inactive) | > 100 µM (inactive) |  | > 100 µM (inactive) | > 100 µM (inactive) | > 100 µM (inactive) | > 100 µM (inactive) | > 100 µM (inactive) | > 100 µM (inactive) | 
